According to patent US12545669B2, “Cycloalkyl and heterocycloalkyl benzisoxazole sulfonamide derivatives” (Pfizer Inc., priority 2019, dated 2026):
Where two headings read alike, the source gives them in different places.

Molecular target: KAT6A (Homo sapiens (Human), UniProt Q92794)
Assay: KAT assay protocol (SAMDI mass spectrometry), KAT6A
Assay type: biochemical
Settings: for inhibition at 1 µM: 1 μM compound; for Ki: 10 μM AcCoA, Morrison equation; for IC50: 1 μM AcCoA
Procedure: Biological Assay Section 1 KAT Assay Protocol:
A. Compound Preparation • 1. Prepare 10 mM stock solutions in 100% DMSO from solid material • 2. Serial dilute 10 mM, 1 mM or 0.1 mM compound stocks 3-fold in 100% DMSO for 11-point dose response
B. Reagent Preparation • 1. Prepare 1× assay buffer containing 10 mM Tris HCL pH 8.0, 2.5 mM NaCl, 0.5 mM EDTA, 0.005% BSG and 0.02% Tween-20 • 2. Dilute Histone peptide (CPC Scientific) and AcCoA (Sigma) together in assay buffer to 2×. • 3. Dilute KAT enzyme in assay buffer to 2×.
C. Enzyme Reaction • 1. Final reaction conditions for each KAT assay in a 20 ul assay reaction volume: • i. […] Add 0.5 ul of diluted compound to the assay plate (384-well V-bottom polypropylene plates) or 0.5 ul of DMSO for control wells. • 3. Add 10 ul of 2× Histone peptide/2× AcCoA mix to the assay plate. • 4. Add 10 ul of 2× enzyme to the assay plate. • 5. Stop the reaction after the indicated time with the addition of 2 ul of 5% formic acid • 6. Each reaction was analyzed using self-assembled monolayer desorption/ionization time-of-flight mass spectrometry (Mrksich, Milan (2008) Mass Spectrometry of Self-Assembled Monolayers: A New Tool for Molecular Surface Science ACS Nano 2008 2 (1), 7-18; SAMDI Tech, Inc. (Chicago, IL)). • 7. Area under the curve (AUC) for both substrate and product peaks was determined for KAT6A at M.W. 2723 [Substrate+H]^+ and 2765 [Product+H]^+ with a +/−1 Da tolerance, respectively. • 8. Percent conversion to product was calculated by: AUCProduct/(AUCSubstrate+AUCProduct).
D. Data Analysis • 1. IC50 values were determined by fitting the % conversion at each inhibitor concentration to the 4-parameter IC50 equation using Pfizer proprietary curve fitting software. • 2. Ki values were determined by fitting the % conversion at each inhibitor concentration to the Morrison equation for tightbinding competitive inhibitors using Pfizer proprietary curve fitting software. Materials
KAT enzymes were expressed using a baculovirus expression system and purified at Pfizer, La Jolla. Histone H3 (1-21) peptide ([…], SEQ ID NO:3) was purchased from CPC Scientific (Sunnyvale, CA). Acetyl coenzyme A was purchased from Sigma-Aldrich (St. Louis, MO). All other biochemical reagents were purchased from Sigma-Aldrich or ThermoFisher Scientific (Waltham, MA).
[…] 10 ul of 2× Histone peptide/AcCoA mix was added to a 384-well V-bottom polypropylene assay plate containing 0.5 ul of serially diluted test compound in 100% dimethyl sulfoxide (DMSO). To start the reaction, 10 ul of 2× enzyme solution was added to the assay plate. KAT assays were terminated after 30-60 minutes with the addition of 2 ul of 5% formic acid. KAT6A used histone H3 (1-21) peptide. The final enzyme concentration for KAT6A was 15 nM. Each reaction was analyzed using self-assembled monolayer desorption/ionization time-of-flight mass spectrometry (Mrksich, Milan (2008) Mass Spectrometry of Self-Assembled Monolayers: A New Tool for Molecular Surface Science ACS Nano 2008 2 (1), 7-18; SAMDI Tech, Inc. (Chicago, IL)).
Area under the curve (AUC) for both substrate and product peaks was determined for KAT6A at M.W. 2723 [Substrate+H]^+ and 2765 [Product+H]^+ with a +/−1 Da tolerance, respectively. Percent conversion to product was calculated by: AUCProduct/(AUCSubstrate+AUCProduct). IC50 values were determined by fitting the % conversion at each inhibitor concentration to the 4-parameter IC50 equation using Pfizer proprietary curve fitting software. Ki values were determined by fitting the % conversion at each inhibitor concentration to the Morrison equation for tightbinding competitive inhibitors using Pfizer proprietary curve fitting software.

[1] = read-out: KAT6A Ki at 10 μM AcCoA

KAT6A, sequence (Q92794 whole entry): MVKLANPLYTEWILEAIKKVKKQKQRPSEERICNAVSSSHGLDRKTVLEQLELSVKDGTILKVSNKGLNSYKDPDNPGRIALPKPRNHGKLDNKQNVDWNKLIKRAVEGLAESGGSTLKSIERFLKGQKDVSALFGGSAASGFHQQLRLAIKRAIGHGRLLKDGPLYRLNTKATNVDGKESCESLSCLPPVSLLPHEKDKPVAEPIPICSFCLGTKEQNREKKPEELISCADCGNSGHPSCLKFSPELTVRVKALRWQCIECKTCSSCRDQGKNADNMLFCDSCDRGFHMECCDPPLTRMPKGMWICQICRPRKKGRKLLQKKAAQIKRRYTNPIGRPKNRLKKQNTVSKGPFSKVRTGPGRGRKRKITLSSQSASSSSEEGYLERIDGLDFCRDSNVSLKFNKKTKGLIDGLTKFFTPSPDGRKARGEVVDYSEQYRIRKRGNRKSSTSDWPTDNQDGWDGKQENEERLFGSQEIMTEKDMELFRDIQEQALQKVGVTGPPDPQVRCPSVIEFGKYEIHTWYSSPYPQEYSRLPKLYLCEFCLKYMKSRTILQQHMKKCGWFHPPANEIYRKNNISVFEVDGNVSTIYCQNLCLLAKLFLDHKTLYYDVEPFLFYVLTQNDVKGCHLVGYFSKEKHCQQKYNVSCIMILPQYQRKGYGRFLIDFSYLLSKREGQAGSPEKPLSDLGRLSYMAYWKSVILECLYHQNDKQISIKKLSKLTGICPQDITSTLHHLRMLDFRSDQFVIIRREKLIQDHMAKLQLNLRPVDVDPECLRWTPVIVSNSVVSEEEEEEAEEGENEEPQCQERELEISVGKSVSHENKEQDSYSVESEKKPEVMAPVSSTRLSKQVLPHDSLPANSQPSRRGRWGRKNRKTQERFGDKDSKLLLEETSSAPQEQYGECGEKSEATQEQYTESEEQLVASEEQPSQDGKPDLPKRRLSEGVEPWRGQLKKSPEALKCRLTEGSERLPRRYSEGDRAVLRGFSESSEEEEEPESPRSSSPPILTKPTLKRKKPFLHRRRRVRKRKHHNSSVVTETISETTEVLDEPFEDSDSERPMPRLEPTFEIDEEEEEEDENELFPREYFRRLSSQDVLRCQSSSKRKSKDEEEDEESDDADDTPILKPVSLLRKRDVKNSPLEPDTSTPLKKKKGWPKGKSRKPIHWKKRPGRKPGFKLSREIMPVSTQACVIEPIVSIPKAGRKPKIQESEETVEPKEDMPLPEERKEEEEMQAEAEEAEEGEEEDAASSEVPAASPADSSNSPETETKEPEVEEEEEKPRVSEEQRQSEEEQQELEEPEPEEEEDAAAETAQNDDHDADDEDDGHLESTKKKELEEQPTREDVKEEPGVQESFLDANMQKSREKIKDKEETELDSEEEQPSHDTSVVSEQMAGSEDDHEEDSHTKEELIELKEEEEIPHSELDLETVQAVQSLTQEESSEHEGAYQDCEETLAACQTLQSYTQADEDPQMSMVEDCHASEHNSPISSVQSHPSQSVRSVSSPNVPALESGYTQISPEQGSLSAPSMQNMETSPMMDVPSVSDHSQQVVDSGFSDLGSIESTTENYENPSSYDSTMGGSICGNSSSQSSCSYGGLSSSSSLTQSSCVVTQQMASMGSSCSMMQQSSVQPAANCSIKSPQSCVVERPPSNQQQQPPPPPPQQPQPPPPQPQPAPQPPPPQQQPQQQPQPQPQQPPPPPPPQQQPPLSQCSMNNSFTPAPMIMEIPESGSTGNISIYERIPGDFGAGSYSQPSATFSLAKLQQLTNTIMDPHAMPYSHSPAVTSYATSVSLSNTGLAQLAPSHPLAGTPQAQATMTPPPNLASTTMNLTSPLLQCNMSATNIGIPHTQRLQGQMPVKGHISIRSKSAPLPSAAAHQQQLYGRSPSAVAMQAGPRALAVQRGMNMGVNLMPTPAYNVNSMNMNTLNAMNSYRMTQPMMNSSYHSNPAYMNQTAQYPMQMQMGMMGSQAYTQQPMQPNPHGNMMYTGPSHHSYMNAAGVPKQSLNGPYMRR

SMILES | inhibition at 1 µM [%] | other results
COc1cc(Cn2cccn2)cc2onc(NS(=O)(=O)C3CCC(C#N)C3)c12 (stereo not shown) [Example 16] | 81 | 
COc1cc(Cn2cccn2)cc2onc(NS(=O)(=O)C3CC3)c12 [Example 13] |  | Ki [1]: 224 nM
COc1cc(Cn2cccn2)cc2onc(NS(=O)(=O)CC3CCC3)c12 [Example 17] | 83 | Ki (KAT6A Ki at 10 μM AcCoA): 82.4 nM
COc1cc(Cn2cccn2)cc2onc(NS(=O)(=O)CC3(C#N)CCCCC3)c12 [Example 40] | 58 | 
COc1cc(Cn2cccn2)cc2onc(NS(=O)(=O)CC3(C(F)(F)F)CC3)c12 [Example 34] | 46 | 
CCOC1(CS(=O)(=O)Nc2noc3cc(Cn4cccn4)cc(OC)c23)CCC1 [Example 11] | 45 | Ki (KAT6A Ki at 10 μM AcCoA): 371 nM
COc1cc(Cn2cccn2)cc2onc(NS(=O)(=O)[C@H]3CCCN(C(=O)OCc4ccccc4)C3)c12 [Example 88] |  | Ki (KAT6A Ki at 10 μM AcCoA): 99.4 nM
COc1cc(Cn2cccn2)cc2onc(NS(=O)(=O)CC3CCCC3)c12 [Example 9] | 91 | Ki (KAT6A Ki at 10 μM AcCoA): 60.1 nM
COc1cc(Cn2cccn2)cc2onc(NS(=O)(=O)CC3CCCO3)c12 (stereo not shown) [Example 5] |  | IC50 (KAT6A IC50 at 1 μM AcCoA): 323 nM
COc1cc(Cn2cccn2)cc2onc(NS(=O)(=O)CCC(C)(C)C3CC3)c12 [Example 32] | 108 | Ki (KAT6A Ki at 10 μM AcCoA): 4.88 nM
COc1cc(Cn2cccn2)cc2onc(NS(=O)(=O)CC3CCCC(F)(F)C3)c12 (stereo not shown) [Example 19] | 81 | Ki (KAT6A Ki at 10 μM AcCoA): 65.3 nM
COc1cc(Cn2cccn2)cc2onc(NS(=O)(=O)CC3CCCOC3)c12 (stereo not shown) [Example 3] |  | IC50 (KAT6A IC50 at 1 μM AcCoA): 301 nM
COc1cc(Cn2cccn2)cc2onc(NS(=O)(=O)CCCC3CCCCC3)c12 [Example 37] | 98 | 
COc1cc(Cn2cccn2)cc2onc(NS(=O)(=O)CC3CC(F)(F)C3)c12 [Example 36] | 51 | 
COc1cc(Cn2cccn2)cc2onc(NS(=O)(=O)CC3(C)CCCCC3)c12 [Example 22] | 60 | Ki (KAT6A Ki at 10 μM AcCoA): 33.2 nM
COc1cc(Cn2cccn2)cc2onc(NS(=O)(=O)CC3CN(S(C)(=O)=O)C3)c12 [Example 85] | 36 | Ki (KAT6A Ki at 10 μM AcCoA): 1340 nM
COc1cc(Cn2cccn2)cc2onc(NS(=O)(=O)C3CC(CC#N)C3)c12 (stereo not shown) [Example 14] |  | Ki (KAT6A Ki at 10 μM AcCoA): 160 nM
COc1cc(Cn2cccn2)cc2onc(NS(=O)(=O)C3CCCC3)c12 [Example 20] |  | Ki [1]: 36.5 nM
COc1cc(Cn2cccn2)cc2onc(NS(=O)(=O)CC3(OC)CCCCC3)c12 [Example 52] | 66 | Ki (KAT6A Ki at 10 μM AcCoA): 127 nM
COc1cc(Cn2cccn2)cc2onc(NS(=O)(=O)CC3CCOCC3)c12 [Example 7, N-{4-methoxy-6-[(1H-pyrazol-1-yl)methyl]-1,2-benzoxazol-3-yl}-1-(oxan-4-yl)methanesulfonamide] | 51 | Ki (KAT6A Ki at 10 μM AcCoA): 177 nM
COc1cc(Cn2cccn2)cc2onc(NS(=O)(=O)[C@H]3CCC[C@H]3OC)c12 [Example 18] | 83 | Ki [1]: 71.9 nM
COc1cc(Cn2cccn2)cc2onc(NS(=O)(=O)CCOCC3CCC3)c12 [Example 126] |  | IC50 (KAT6A IC50 at 1 μM AcCoA): 133 nM
COc1cc(Cn2cccn2)cc2onc(NS(=O)(=O)NC3CCCCC3)c12 [Example 131] |  | IC50 (read-out: KAT6A IC50 at 1 μM AcCoA): 6 nM; Ki [1]: 3 nM
COc1cc(Cn2cccn2)cc2onc(NS(=O)(=O)CC3CCCCC3(F)F)c12 (stereo not shown) [Example 41] | 91 | 
COc1cc(Cn2cccn2)cc2onc(NS(=O)(=O)CC3(OC(C)C)CCCO3)c12 (stereo not shown) [Example 122] | 85 | IC50 (KAT6A IC50 at 1 μM AcCoA): 38.4 nM; Ki (KAT6A Ki at 10 μM AcCoA): 14.9 nM
COc1cc(Cn2cccn2)cc2onc(NS(=O)(=O)CC3CC34CC4)c12 (stereo not shown) [Example 57] | 104 | Ki (KAT6A Ki at 10 μM AcCoA): 13.9 nM
COc1cc(Cn2cccn2)cc2onc(NS(=O)(=O)C3CCC3)c12 [Example 12] | 59 | Ki [1]: 199 nM
COc1cc(Cn2cccn2)cc2onc(NS(=O)(=O)CCC3CCCCC3)c12 [Example 31] | 93 | Ki (KAT6A Ki at 10 μM AcCoA): 4.94 nM
COc1cc(Cn2cccn2)cc2onc(NS(=O)(=O)CC3CCCOC3)c12 (stereo not shown) [Example 98] | 41 | 
COc1cc(Cn2cccn2)cc2onc(NS(=O)(=O)CC34CCC(CC3)CC4)c12 [Example 24] | 93 | Ki (KAT6A Ki at 10 μM AcCoA): 19.5 nM

More lines, main results first:

inhibition at 1 µM [%] | SMILES | other results
92 | COCC1(S(=O)(=O)Nc2noc3cc(Cn4cccn4)cc(OC)c23)CCC1 [Example 74] | 
71 | COc1cc(Cn2cccn2)cc2onc(NS(=O)(=O)CC3(OC)CCC3)c12 [Example 56] | 
82 | COc1cc(Cn2cccn2)cc2onc(NS(=O)(=O)CC3CCCC(F)C3)c12 (stereo not shown) [Example 54] | 
97 | COc1cc(Cn2cccn2)cc2onc(NS(=O)(=O)C3CC(C)CC(C)C3)c12 (stereo not shown) [Example 62] | 
48 | COc1cc(Cn2cccn2)cc2onc(NS(=O)(=O)CC3CCCCC3(C)C)c12 (stereo not shown) [Example 63] | 
90 | COc1cc(Cn2cccn2)cc2onc(NS(=O)(=O)CC3(C(F)F)CCC3)c12 [Example 76] | 
91 | COc1cc(Cn2cccn2)cc2onc(NS(=O)(=O)CC3C(C)(C)C3(F)F)c12 (stereo not shown) [Example 75] | 
97 | COc1cc(Cn2cccn2)cc2onc(NS(=O)(=O)CCC3(C)CC3)c12 [Example 53] | 
67 | COc1cc(Cn2cccn2)cc2onc(NS(=O)(=O)CCC3CCCCO3)c12 (stereo not shown) [Example 108] | 
89 | COc1cc(Cn2cccn2)cc2onc(NS(=O)(=O)C3CCC(OC)CC3)c12 (stereo not shown) [Example 44] | 
55 | COc1cc(Cn2cccn2)cc2onc(NS(=O)(=O)CC3(C)CCCC3)c12 [Example 61] | 
53 | COc1cc(Cn2cccn2)cc2onc(NS(=O)(=O)[C@@H]3CCCN(C(=O)OCc4ccccc4)C3)c12 [Example 91] | 
76 | COc1cc(Cn2cccn2)cc2onc(NS(=O)(=O)C3CCN(C(C)=O)CC3)c12 [Example 94] | 
80 | COc1cc(Cn2cccn2)cc2onc(NS(=O)(=O)CC(OC)C3CCCC3)c12 (stereo not shown) [Example 70] | 
58 | COc1cc(Cn2cccn2)cc2onc(NS(=O)(=O)C3CCOCC3C)c12 (stereo not shown) [Example 96] | 
87 | COc1cc(Cn2cccn2)cc2onc(NS(=O)(=O)CC3(C(F)F)CC3)c12 [Example 50] | 
83 | COc1cc(Cn2cccn2)cc2onc(NS(=O)(=O)C3CCCN(C(C)=O)C3)c12 (stereo not shown) [Example 97] | 
61 | COc1cc(Cn2cccn2)cc2onc(NS(=O)(=O)C3CCC(C)CC3)c12 (stereo not shown) [Example 82] | 
55 | COc1cc(Cn2cccn2)cc2onc(NS(=O)(=O)CC(C)C3CC3)c12 (stereo not shown) [Example 48] | 
50 | COc1cc(Cn2cccn2)cc2onc(NS(=O)(=O)CC3(C)CC3(F)F)c12 (stereo not shown) [Example 42] | 
91 | COc1cc(Cn2cccn2)cc2onc(NS(=O)(=O)CCC3CCOCC3)c12 [Example 117] | 
87 | COc1cc(Cn2cccn2)cc2onc(NS(=O)(=O)CCCC3CC3)c12 [Example 58] | 
88 | COc1cc(Cn2cccn2)cc2onc(NS(=O)(=O)CC3CC3(F)F)c12 (stereo not shown) [Example 66] | 
95 | COc1cc(Cn2cccn2)cc2onc(NS(=O)(=O)CC3(C(F)F)CCCC3)c12 [Example 65] | 
56 | COc1cc(Cn2cccn2)cc2onc(NS(=O)(=O)CC3(C)CCOCC3)c12 [Example 118] | 
65 | COc1cc(Cn2cccn2)cc2onc(NS(=O)(=O)C3CCC(F)(F)CC3)c12 [Example 51] | 
